Assay results reported in PubChem BioAssay (NCI).
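96-well plates; 48 h exposure; 5 concentrations. Endpoints by linear interpolation between flanking doses. Not reached: highest tested concentration assigned. GI50 = concentration required for 50% inhibition of growth. TGI: total growth inhibition.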

Assays:
Assay in all cases: DTP human tumour cell line panel, 48 h
SF-295 CNS = tested on: SF-295 CNS
MDA-MB-231 breast = tested on: MDA-MB-231 breast
SK-MEL-5 melanoma = tested on: SK-MEL-5 melanoma
NCI-H23 lung = tested on: NCI-H23 lung
HS 578T breast = tested on: HS 578T breast
T-47D breast = tested on: T-47D breast
OVCAR-5 ovarian = tested on: OVCAR-5 ovarian
HCT-116 colon = tested on: HCT-116 colon
SNB-75 CNS = tested on: SNB-75 CNS
HL-60(TB) leukemia = tested on: HL-60(TB) leukemia
OVCAR-3 ovarian = tested on: OVCAR-3 ovarian
A498 renal = tested on: A498 renal
UACC-257 melanoma = tested on: UACC-257 melanoma
HCC-2998 colon = tested on: HCC-2998 colon
HOP-92 NSCLC = tested on: HOP-92 NSCLC
DU-145 prostate = tested on: DU-145 prostate
PC-3 prostate = tested on: PC-3 prostate
EKVX NSCLC = tested on: EKVX NSCLC
SK-MEL-2 melanoma = tested on: SK-MEL-2 melanoma
786-0 renal = tested on: 786-0 renal
CCRF-CEM leukemia = tested on: CCRF-CEM leukemia
OVCAR-8 ovarian = tested on: OVCAR-8 ovarian
MDA-MB-435 = tested on: MDA-MB-435
NCI/ADR-RES ovarian = tested on: NCI/ADR-RES ovarian
RXF 393 renal = tested on: RXF 393 renal
CAKI-1 renal = tested on: CAKI-1 renal
MALME-3M melanoma = tested on: MALME-3M melanoma
LOX IMVI melanoma = tested on: LOX IMVI melanoma
MOLT-4 leukemia = tested on: MOLT-4 leukemia
NCI-H522 lung = tested on: NCI-H522 lung
MDA-MB-468 breast = tested on: MDA-MB-468 breast
HOP-62 NSCLC = tested on: HOP-62 NSCLC
HT29 colon = tested on: HT29 colon
UACC-62 melanoma = tested on: UACC-62 melanoma
NCI-H460 lung = tested on: NCI-H460 lung
TK-10 renal = tested on: TK-10 renal
NCI-H226 lung = tested on: NCI-H226 lung
SNB-19 CNS = tested on: SNB-19 CNS
M14 melanoma = tested on: M14 melanoma
SF-268 CNS = tested on: SF-268 CNS
U251 CNS = tested on: U251 CNS
A549 NSCLC = tested on: A549 NSCLC
MCF7 breast = tested on: MCF7 breast
RPMI-8226 leukemia = tested on: RPMI-8226 leukemia
ACHN renal = tested on: ACHN renal
K-562 leukemia = tested on: K-562 leukemia
SK-OV-3 ovarian = tested on: SK-OV-3 ovarian
OVCAR-4 ovarian = tested on: OVCAR-4 ovarian
IGROV1 ovarian = tested on: IGROV1 ovarian
HCT-15 colon = tested on: HCT-15 colon
KM12 colon = tested on: KM12 colon
BT-549 breast = tested on: BT-549 breast
UO-31 renal = tested on: UO-31 renal
SW-620 colon = tested on: SW-620 colon
COLO 205 colon = tested on: COLO 205 colon
SK-MEL-28 melanoma = tested on: SK-MEL-28 melanoma
SN12C renal = tested on: SN12C renal
SF-539 CNS = tested on: SF-539 CNS

Compound: COc1ccc(-c2cc(C(=O)N=Nc3c(O)[nH]c4ccc(Br)cc34)c3ccccc3n2)cc1
- GI50 (SF-295 CNS): 13.7 µM
- TGI (SF-295 CNS): 27.2 µM
- GI50 (MDA-MB-231 breast): 6.94 µM
- TGI (MDA-MB-231 breast): 22.9 µM
- GI50 (SK-MEL-5 melanoma): 15.8 µM
- TGI (SK-MEL-5 melanoma): 31.8 µM
- GI50 (NCI-H23 lung): 3.09 µM
- TGI (NCI-H23 lung): 13.3 µM
- GI50 (HS 578T breast): 14.3 µM
- TGI (HS 578T breast): 55.1 µM
- GI50 (T-47D breast): 19.8 µM
- TGI (T-47D breast): 65.8 µM
- GI50 (OVCAR-5 ovarian): 14.3 µM
- TGI (OVCAR-5 ovarian): 27.6 µM
- GI50 (HCT-116 colon): 5.55 µM
- TGI (HCT-116 colon): 66.4 µM
- GI50 (SNB-75 CNS): 14.1 µM
- TGI (SNB-75 CNS): 37.9 µM
- GI50 (HL-60(TB) leukemia): 24.7 µM
- TGI (HL-60(TB) leukemia): > 100 µM
- GI50 (OVCAR-3 ovarian): 12.3 µM
- TGI (OVCAR-3 ovarian): 36.1 µM
- GI50 (A498 renal): 20.8 µM
- TGI (A498 renal): 36.8 µM
- GI50 (UACC-257 melanoma): 16.6 µM
- TGI (UACC-257 melanoma): 37.7 µM
- GI50 (HCC-2998 colon): 12.9 µM
- TGI (HCC-2998 colon): 26.4 µM
- GI50 (HOP-92 NSCLC): 13.3 µM
- TGI (HOP-92 NSCLC): 40.1 µM
- GI50 (DU-145 prostate): 10.9 µM
- TGI (DU-145 prostate): 30.1 µM
- GI50 (PC-3 prostate): 8.46 µM
- TGI (PC-3 prostate): > 100 µM
- GI50 (EKVX NSCLC): 10.5 µM
- TGI (EKVX NSCLC): 22.4 µM
- GI50 (SK-MEL-2 melanoma): 18.2 µM
- TGI (SK-MEL-2 melanoma): 33.9 µM
- GI50 (786-0 renal): 19.4 µM
- TGI (786-0 renal): 47.8 µM
- GI50 (CCRF-CEM leukemia): 3.09 µM
- TGI (CCRF-CEM leukemia): > 100 µM
- GI50 (OVCAR-8 ovarian): 12.3 µM
- TGI (OVCAR-8 ovarian): 31.4 µM
- GI50 (MDA-MB-435): 13.3 µM
- TGI (MDA-MB-435): 43.8 µM
- GI50 (NCI/ADR-RES ovarian): 8.75 µM
- TGI (NCI/ADR-RES ovarian): 33.9 µM
- GI50 (RXF 393 renal): 10 µM
- TGI (RXF 393 renal): 22.6 µM
- GI50 (CAKI-1 renal): 13.9 µM
- TGI (CAKI-1 renal): 40.1 µM
- GI50 (MALME-3M melanoma): 15.6 µM
- TGI (MALME-3M melanoma): 34.9 µM
- GI50 (LOX IMVI melanoma): 3.33 µM
- TGI (LOX IMVI melanoma): 12.3 µM
- GI50 (MOLT-4 leukemia): 5.08 µM
- TGI (MOLT-4 leukemia): > 100 µM
- GI50 (NCI-H522 lung): 16.9 µM
- TGI (NCI-H522 lung): 46.3 µM
- GI50 (MDA-MB-468 breast): 10.4 µM
- TGI (MDA-MB-468 breast): 25.3 µM
- GI50 (HOP-62 NSCLC): 16.5 µM
- TGI (HOP-62 NSCLC): 36.7 µM
- GI50 (HT29 colon): 3.62 µM
- TGI (HT29 colon): 14.5 µM
- GI50 (UACC-62 melanoma): 15.6 µM
- TGI (UACC-62 melanoma): 30.2 µM
- GI50 (NCI-H460 lung): 3.7 µM
- TGI (NCI-H460 lung): 16.1 µM
- GI50 (TK-10 renal): 22 µM
- TGI (TK-10 renal): 41.2 µM
- GI50 (NCI-H226 lung): 14.2 µM
- TGI (NCI-H226 lung): 45.7 µM
- GI50 (SNB-19 CNS): 15.5 µM
- TGI (SNB-19 CNS): 28.9 µM
- GI50 (M14 melanoma): 8.54 µM
- TGI (M14 melanoma): 44.4 µM
- GI50 (SF-268 CNS): 17.9 µM
- TGI (SF-268 CNS): 48.4 µM
- GI50 (U251 CNS): 3.4 µM
- TGI (U251 CNS): > 100 µM
- GI50 (A549 NSCLC): 9.06 µM
- TGI (A549 NSCLC): 51.6 µM
- GI50 (MCF7 breast): 6.26 µM
- TGI (MCF7 breast): 26.5 µM
- GI50 (RPMI-8226 leukemia): 6.37 µM
- TGI (RPMI-8226 leukemia): > 100 µM
- GI50 (ACHN renal): 11.1 µM
- TGI (ACHN renal): 24.1 µM
- GI50 (K-562 leukemia): 4.28 µM
- TGI (K-562 leukemia): > 100 µM
- GI50 (SK-OV-3 ovarian): 16.1 µM
- TGI (SK-OV-3 ovarian): 34.8 µM
- GI50 (OVCAR-4 ovarian): 17.1 µM
- TGI (OVCAR-4 ovarian): 72.2 µM
- GI50 (IGROV1 ovarian): 11.2 µM
- TGI (IGROV1 ovarian): 25.9 µM
- GI50 (HCT-15 colon): 3.23 µM
- TGI (HCT-15 colon): 11.9 µM
- GI50 (KM12 colon): 19 µM
- TGI (KM12 colon): 85.7 µM
- GI50 (BT-549 breast): 27.8 µM
- TGI (BT-549 breast): 48.5 µM
- GI50 (UO-31 renal): 12.5 µM
- TGI (UO-31 renal): 25 µM
- GI50 (SW-620 colon): 2.28 µM
- TGI (SW-620 colon): 6.83 µM
- GI50 (COLO 205 colon): 16.1 µM
- TGI (COLO 205 colon): 47.5 µM
- GI50 (SK-MEL-28 melanoma): 14.5 µM
- TGI (SK-MEL-28 melanoma): 28.1 µM
- GI50 (SN12C renal): 14.9 µM
- TGI (SN12C renal): 30.3 µM
- GI50 (SF-539 CNS): 15.6 µM
- TGI (SF-539 CNS): 29.7 µM
